Measurements published in US9789099B2, “Cosmetic or dermatological preparation for prophylaxis and/or treatment of atopic dermatitis” (Beiersdorf AG, priority 2012, dated 2017).

Assays:
Assay type in all cases: in vivo, human
[1] = tested on: patients with atopic dermatitis of mild to moderate severity; test: Randomized, blind, controlled two-armed study: dermatologist-assessed clinical severity (local SCORAD, erythema)
Excerpt: Using a randomized, blind (participant), controlled, two-armed study design, it was the aim to evaluate the cortisone saving potential and the non-inferiority of the test sample during an application twice daily lasting for four weeks compared to the once-weekly treatment with 1% hydrocortisone (HC), followed by an application of the test sample for a further three weeks. The study results were based on an assessment, controlled by the dermatologist, of the degree of severity of the clinical size of atopic dermatitis, the colonization of the skin lesions with S. aureus, biotechnological measurement of parameters of the epidermal barrier function, as well as the itching intensity in the test area.

S. aureus = test: Same study: colonization of the skin lesions with S. aureus; conditions: topical; same two-arm design
Excerpt: (§1) Using a randomized, blind (participant), controlled, two-armed study design, it was the aim to evaluate the cortisone saving potential and the non-inferiority of the test sample during an application twice daily lasting for four weeks compared to the […] treatment with 1% hydrocortisone (HC), followed by an application of the test sample for a further three weeks. The study results were based on an assessment, controlled by the dermatologist, of the degree of severity of the clinical size of atopic dermatitis, the colonization of the skin lesions with S. aureus, biotechnological measurement of parameters of the epidermal barrier function, as well as the itching intensity in the test area.

[2] = tested on: lesional skin of patients with atopic dermatitis; test: Same study: parameters of the epidermal barrier function (TEWL, skin moisture) on lesional skin
Excerpt: as §1

C[C@]12CCC(=O)C=C1CC[C@@H]1[C@@H]2[C@@H](O)C[C@@]2(C)[C@H]1CC[C@]2(O)C(=O)CO [1% hydrocortisone, hydrocortisone] was tested, and the erythema ([1]; topical, same two-arm design) was “significant reduction”, the “local SCORAD” value ([1]; topical, test sample twice daily for four weeks vs 1% HC for first week followed by test sample for three weeks) was “significant reduction” and the “changes in local SCORAD, erythema, TEWL and S. aureus colonization relative to the other arm” value ([1]; within the first study week, differences between arms not significant apart from TEWL on day 7) was “greater changes”. For the same compound, the “colonization of skin lesions with S. aureus” value (S. aureus) was “significant reduction”, the “skin moisture of lesional skin” value ([2]; application in the first study week) was “only slightly” and the “lesional skin TEWL (transepidermal water loss)” value ([2]; topical, same two-arm design) was “significant reduction”.
